Source: patent US6468729B2, “Silver halide photographic light-sensitive material” (Fuji Photo Film Co., Ltd., priority 2000, dated 2002)

assay: pKa measurement by titration (AT-210 device, neutralization middle point); type: physicochemical; details: —NHSO2— dissociation group, 25° C., THF/H2O=6/4
Method: The measurement of the pKa value in the present invention will be described below. […] 20 mL of H2O were then added to completely dissolve the material. Subsequently, 0.25 mL of an aqueous 0.2 N hydrochloric acid solution was added, and the resultant solution was stirred. An aqueous 0.2 N NaOH solution was dropped into this solution, and the pKa value was obtained from the neutralization middle point. All pKa values in the present invention were obtained under the above measurement conditions.

SMILES	pKa value
CCCCCCCCCCCCCCCCCCOc1ccc(C(C)(C)C)cc1S(=O)(=O)NC(C)c1n[nH]c2cc(C(C)(C)C)nn12 (centres unmarked) [Compound G-1]	more than 12
CCCCCCCCCCCCCCCC(C(=O)O)C(=O)Nc1cccc(C(=O)Nc2ccc(CCCc3n[nH]c4cc(C(C)(C)C)nn34)cc2)c1 (centres unmarked) [Compound G-2]	more than 12
CCCCCCCCOc1ccc(C(C)(C)CC(C)(C)C)cc1S(=O)(=O)Nc1cc(S(=O)(=O)Nc2c(C)cc(C)c(-c3n[nH]c4cc(CC)nn34)c2C)ccc1Cl [Compound G-3]	more than 12
CCCCCCCCOc1ccc(NS(=O)(=O)c2cc(C(C)(C)CC(C)(C)C)ccc2OCCOc2ccc(C)cc2)cc1S(=O)(=O)NC(C)c1n[nH]c2cc(C(C)(C)C)nn12 (centres unmarked) [Compound G-4]	more than 12
CCCCCCCCOc1ccc(C(C)(C)CC(C)(C)C)cc1S(=O)(=O)Nc1ccc(OCCOC)c(S(=O)(=O)NC(C)(C)c2n[nH]c3c(Cl)c(C(C)(C)C)nn23)c1 [Compound G-5]	more than 12
CCCCCCCCOc1ccc(NS(=O)(=O)c2cc(C(C)(C)CC(C)(C)C)ccc2OCCCCCCCC)cc1S(=O)(=O)NCC(C)c1n[nH]c2c(Cl)c(C(C)(C)C)nn12 (centres unmarked) [Compound G-6]	more than 12
CCCCCCCCCCCCC(Oc1ccc(NS(=O)(=O)c2ccc(S(N)(=O)=O)cc2)cc1)c1n[nH]c2c(Cl)c(C)nn12 (centres unmarked) [Compound G-7]	more than 12
CCCCCCCCOc1ccc(NS(=O)(=O)c2cc(C(C)(C)CC(C)(C)C)ccc2OCCCCCCCC)cc1S(=O)(=O)NCC(C)c1n[nH]c2cc(CC)nn12 (centres unmarked) [Compound G-9]	more than 12
